Data taken from US7173134B2, “Selective RXR ligands” (SmithKline Beecham Corporation, priority 2001, dated 2007).

How the values were obtained:
[1] = molecular target: T1, hRXRα (Homo sapiens, UniProt P19793); test: Scintillation Proximity Assay (SPA) binding assay, 9-cis[3H]-retinoic acid radioligand; details: RXRα ligand binding domain on SPA beads; radioligand 9-cis[3H]-retinoic acid; read-out: Apparent pKi (converted)
T1 construct: polyhistidine (N); made in house; host or cells: E. coli
T1 sequence (P19793 227-458 limits assumed): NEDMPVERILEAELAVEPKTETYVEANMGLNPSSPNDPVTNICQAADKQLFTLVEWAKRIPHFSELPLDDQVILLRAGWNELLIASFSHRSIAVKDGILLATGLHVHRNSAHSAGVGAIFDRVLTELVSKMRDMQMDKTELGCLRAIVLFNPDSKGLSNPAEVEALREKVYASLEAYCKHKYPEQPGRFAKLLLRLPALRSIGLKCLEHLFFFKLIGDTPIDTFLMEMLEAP
Experimental: The compounds were tested for their ability to bind to hRXRα using a Scintillation Proximity Assay (SPA) as is known in the art. The RXRα ligand binding domain (LBD) was expressed in E. coli as an amino-terminal polyhistidine tagged fusion protein. The LBD was then labeled with biotin and immobilized on streptavidin-modified scintillation proximity beads.
9-cis[3H]-Retinoic acid (9-cis) was the radioligand used for the assay. To each well to be assayed was added the desired concentration of the previously prepared solution of 9-cis previously incubated with receptor-coated SPA bead slurry. The plates were incubated for at least 1 hour at room temperature and bound radioactivity for each well was determined in a Wallac 1450 Microbeta counter.
In this specification, pKi=−log of the concentration of the test compound required to achieve an apparent Ki value according to the equation Ki=IC50/1+[L]/Kd, where IC50=the concentration of test compound required to inhibit 50% of the specific binding of the radioligand, [L] is the concentration of the radioligand used, and Kd is the dissociation constant for the radioligand at the receptor.

[2] = molecular target: T2, full length human RXRα (Homo sapiens, UniProt P19793); test: Transient transfection assay in CV-1 cells (CRBP II-tk-SPAP reporter); assay type: cell-based; details: CV-1 cells transfected with human RXRα and CRBP II-tk-SPAP reporter; 24 h incubation; SPAP activity
T2 construct: These cells were transfected with full length human RXRα; expressed in transfected cells; host or cells: CV-1 (monkey kidney cell line)
T2 sequence (P19793 1-462): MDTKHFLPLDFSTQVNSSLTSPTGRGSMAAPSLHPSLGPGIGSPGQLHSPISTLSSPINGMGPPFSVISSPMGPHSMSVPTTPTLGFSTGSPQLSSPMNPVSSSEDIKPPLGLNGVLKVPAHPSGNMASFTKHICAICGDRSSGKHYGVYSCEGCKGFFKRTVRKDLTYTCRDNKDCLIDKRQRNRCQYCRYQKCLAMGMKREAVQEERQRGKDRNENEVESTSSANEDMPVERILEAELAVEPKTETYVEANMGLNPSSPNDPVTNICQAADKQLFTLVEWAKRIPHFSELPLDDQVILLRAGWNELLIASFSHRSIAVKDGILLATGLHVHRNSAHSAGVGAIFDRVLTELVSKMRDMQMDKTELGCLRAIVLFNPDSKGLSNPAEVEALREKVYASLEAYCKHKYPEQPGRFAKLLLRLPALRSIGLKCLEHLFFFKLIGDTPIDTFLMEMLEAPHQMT
Experimental: Transcriptional activity of the compounds was measured in a monkey kidney cell line (CV-1). These cells were transfected with full length human RXRα and the natural response element, cellular retinol binding protein type II in a reporter gene construct, (CRBP II-tk-SPAP), consisting of HSV tk promoter, and the secreted placental alkaline phosphatase reporter gene. CV-1 cells were plated at a density of 24,000 cells per well in high glucose DMEM supplemented with 10% charcoal/dextran-treated FBS. Transfection mixes contained 4 ng of receptor expression vector, 8 ng of reporter plasmid, 25 ng of β-galactosidase expression vector (used as an internal control), and 43 ng of carrier plasmid. Transfections were performed with Lipofectamine according to the manufacturer's instructions. Drug dilutions were prepared in phenol red-free DMEM/F-12 with 15 mM HEPES supplemented with 10% charcoal-stripped, delipidated calf serum. Cells were incubated for 24 h in the presence of drugs, after which the medium was sampled and assayed for SPAP activity.
B-galactosidase, which measures transfection efficiency activity, was determined by using 3.6 mM o-nitrophenyl-D-galactopyranoside in 0.1 M sodium phosphate pH 7.2 buffer containing 0.13% Triton X-100 as substrate. These plates were read on a Molecular Devices Vmax spectrophotometer, at a 405 nm endpoint reading. Data were reduced using RoboFit.
The results were expressed as percent of maximum or fold activation calculated by the following formulas: fold activation=(((SPAP−SPAPsubstrate blank avg.)/(β-gal−β-gal substrate blank avg.))−DMSO vehicle avg.)/DMSO vehicle avg, and % max.=(fold activation of unknown/positive control fold activation avg.)×100.

Ki [1]	EC50 [2]	Structure (SMILES)
> 1000 nM	> 1000 nM	CC1(C)CCC(C)(C)c2cc(C3CCCc4oc(C(=O)O)cc43)ccc21 (stereo not drawn) [Example 13, 4-(5,5,8,8-Tetramethyl-5,6,7,8-tetrahydro-2-naphthalenyl)-4,5,6,7-tetrahydro-1-benzofuran-2-carboxylic acid]
> 1000 nM	> 1000 nM	CC1(C)CCC(C)(C)c2cc(Cc3csc(/C=C/C(=O)O)c3)ccc21 [Example 18, (2E)-3-{4-[(5,5,8,8-Tetramethyl-5,6,7,8-tetrahydro-2-naphthalenyl)methyl]-2-thienyl}-2-propenoic acid]
> 1000 nM	> 1000 nM	COc1cc2c(cc1Cc1coc(/C=C/C(=O)O)c1)C(C)(C)CCC2(C)C [Example 19, (2E)-3-{4-[(3-Methoxy-5,5,8,8-tetramethyl-5,6,7,8-tetrahydro-2-naphthalenyl)methyl]-2-furyl}-2-propenoic acid]
